Data set [1] can be described thus: Lipophilicity, logD of the compound at pH 7.4 by chromatographic method. The data set is classed as physicochemical. The settings on record: buffer.
Data set [2] concerns Rattus norvegicus. The experiment in a line: Volume of distribution at steady state in rat at 5 umol/kg, iv. The data set is classed as ADME, organism-based. The conditions noted are these: in vivo.
In data set [3] the test system is Rattus norvegicus. The experiment in a line: Volume of distribution at steady state in rat at 2.1 umol/kg, iv. The data set is classed as ADME, organism-based. The settings on record: in vivo.

The term chromatographic logD denotes lipophilicity estimated from chromatographic retention. The low end stands for lower lipophilicity, the high end for higher lipophilicity. Regarding `CCc1cc2c(cc1CC)CC(NC[C@H](O)c1ccc(O)c3[nH]c(=O)ccc13)C2` [INDACATEROL], the chromatographic logD in data set [1] was 1.77. Further, in the data set on Rattus norvegicus [2], the Vdss is 4.1 mL/min/kg.

Turning to `O=c1[nH]c2c(O)ccc([C@@H](O)CN[C@H]3CCC[C@@H]3OCc3ccccc3)c2s1`, the chromatographic logD in data set [1] is 1.25. Besides, the Vdss with Rattus norvegicus [3] was determined as 6.2 mL/min/kg.
